Columns and labels:
[1] = tested on: iPSCs derived mammary gland organoids; experiment: Flow cytometry quantification of mammary gland progenitor markers during 3D differentiation of iPSCs; type: cell-based, human; settings: 20 ng/mL BMP4, 1 μM RA, single or combination, 42 days or 31 days protocol, vs control condition
From the text: In order to generate milk bioactives that closely resemble those found in human breast milk, different methods using bone morphogenetic protein 4 (BMP4) and retinoic acid (RA) in 42 days and 31 days as a shortened time-course protocol were established in a 3D-platform using iPSCs derived mammary gland organoids as a biomimetic model of the human mammary gland (FIG. 6).

[2] = tested on: iPS-derived mammary-gland cells; experiment: LC-MS/MS targeted proteomic analysis of osteopontin secretion in culture media; type: cell-based, human; settings: BMP4 and RA added to the differentiation culture medium

Row | Molecule | expression of mammary gland progenitor markers EpCAM (CD326), CD49f, MUC1 (CD227), GATA3 [1] | expression and secretion of milk-specific bioactive marker osteopontin (OPN) [2]
1 | CC1=C(/C=C/C(C)=C/C=C/C(C)=C/C(=O)O)C(C)(C)CCC1 [RA, retinoic acid] | can induce the expression of mammary gland progenitor markers | improve expression and secretion levels of milk-specific bioactive markers
2 | BMP4: bone morphogenetic protein 4, differentiation factor added to the culture medium (protein, UniProt P12644 293-408, looked up) Bone morphogenetic protein 4: SPKHHSQRARKKNKNCRRHSLYVDFSDVGWNDWIVAPPGYQAFYCHGDCPFPLADHLNSTNHAIVQTLVNSVNSSIPKACCVPTELSAISMLYLDEYDKVVLKNYQEMVVEGCGCR | can induce the expression of mammary gland progenitor markers | improve expression and secretion levels of milk-specific bioactive markers

Reference: patent US20260283968A1, “METHOD FOR PRODUCING MILK LIKE PRODUCTS” (SOCIÉTÉ DES PRODUITS NESTLÉ S.A., priority 2023, published 2026)
